Measured values taken from patent US20260062422A1 (Halda Therapeutics OpCo, Inc., priority 2022, published 2026).

Tests used:
progesterone receptor = biological target: T1, progesterone receptor (Homo sapiens, UniProt P06401); assay: PR Human Progesterone NHR Binding (Agonist Radioligand) Assay, T47D cytosol; conditions: T47D cytosolic fractions, 0.5 nM [3H]progesterone, 1 hour at 4° C., Table 16
T1 construct: host or cells: T47D cells (cytosolic fraction)
T1 sequence (P06401 1-933): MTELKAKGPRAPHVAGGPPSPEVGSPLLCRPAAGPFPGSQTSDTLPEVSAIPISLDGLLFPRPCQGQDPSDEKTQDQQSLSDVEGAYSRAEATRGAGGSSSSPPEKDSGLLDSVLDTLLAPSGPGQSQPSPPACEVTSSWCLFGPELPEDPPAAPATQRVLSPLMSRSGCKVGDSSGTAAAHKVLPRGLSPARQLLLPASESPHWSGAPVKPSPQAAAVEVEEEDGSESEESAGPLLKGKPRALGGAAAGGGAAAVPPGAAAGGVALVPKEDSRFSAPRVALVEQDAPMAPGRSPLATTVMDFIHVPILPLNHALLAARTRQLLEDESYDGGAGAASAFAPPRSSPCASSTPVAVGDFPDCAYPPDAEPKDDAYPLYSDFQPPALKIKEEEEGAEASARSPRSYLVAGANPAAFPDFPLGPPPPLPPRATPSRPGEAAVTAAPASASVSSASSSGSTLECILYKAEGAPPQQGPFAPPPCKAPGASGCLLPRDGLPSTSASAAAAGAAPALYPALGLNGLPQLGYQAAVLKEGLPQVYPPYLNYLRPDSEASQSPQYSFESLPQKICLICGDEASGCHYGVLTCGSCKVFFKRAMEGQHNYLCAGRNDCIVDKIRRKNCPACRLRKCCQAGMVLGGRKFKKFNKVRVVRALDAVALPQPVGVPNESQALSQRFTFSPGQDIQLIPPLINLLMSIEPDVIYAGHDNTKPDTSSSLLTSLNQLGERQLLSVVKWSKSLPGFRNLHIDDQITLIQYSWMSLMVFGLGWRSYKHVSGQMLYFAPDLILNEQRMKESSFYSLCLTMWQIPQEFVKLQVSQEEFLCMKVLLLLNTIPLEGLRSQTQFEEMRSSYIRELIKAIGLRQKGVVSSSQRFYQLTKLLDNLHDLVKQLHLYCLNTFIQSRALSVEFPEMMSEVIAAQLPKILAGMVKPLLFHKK
Procedure: Compounds were tested using the PR Human Progesterone NHR Binding (Agonist Radioligand) Assay, Cerep at Eurofins Discovery using a modified version of the protocol from Sarup et al. (Cancer Res 1988; 48:5071-5078). Briefly, cytosolic fractions of T47D cells were incubated with 0.5 nM [^3H]progesterone for 1 hour at 4° C. in the absence or presence of the test compound. Nonspecific binding was determined in the presence of 1 μM promegestone. Reactions were subjected to scintillation counting. Results are expressed as a percent inhibition of the control radioligand specific binding.

[1] = biological target: T2, progesterone receptor ligand binding domain (LBD) (Homo sapiens, UniProt P06401); assay: FP assay (PolarScreen Progesterone Receptor Competitor Assay) for binding to progesterone receptor LBD; conditions: GST-tagged PR LBD, Fluormone tracer, fluorescence polarization, 2 hours; Table 17
T2 construct: GST-tagged PR LBD, Fluormone tracer, and compound were mixed; purchased Life Technologies A15905 or a15906
T2 sequence (P06401 679-913 limits assumed): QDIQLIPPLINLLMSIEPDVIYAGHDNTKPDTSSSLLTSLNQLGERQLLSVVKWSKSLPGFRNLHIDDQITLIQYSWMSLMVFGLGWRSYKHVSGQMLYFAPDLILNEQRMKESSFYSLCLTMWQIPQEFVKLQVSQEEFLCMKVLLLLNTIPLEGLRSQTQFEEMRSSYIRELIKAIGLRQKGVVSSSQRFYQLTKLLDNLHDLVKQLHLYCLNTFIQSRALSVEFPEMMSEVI
Procedure: Compounds were tested using the PolarScreen™ Progesterone Receptor Competitor Assay Kit (Life Technologies Cat #A15905 or a15906), as per the manufacturer's instructions. Briefly, GST-tagged PR LBD, Fluormone tracer, and compound were mixed and incubated for 2 hours at room temperature in the dark. Following incubation, the plates were spun at 3000×g for 30 seconds, then sealed with an optical adhesive cover, and fluorescence polarization was measured using appropriate excitation and emission filters with an EnVision Plate Reader (Perkin Elmer). Compound concentration vs. mP value were plotted in Prism (GraphPad). A four-parameter non-linear regression curve fit was applied to dose-response data to determine the half-maximal inhibitory concentration (IC50) for each test compound.

Structure (SMILES) | Ki (progesterone receptor) [µM] | IC50 [1] [µM]
CCNC(=O)C[C@@H]1N=C(c2ccc(OCC3CN(c4ncc(C(=O)N[C@H]5C(C)(C)[C@H](Oc6ccc(C#N)c(Cl)c6)C5(C)C)cn4)C3)cc2)c2c(sc(C)c2C)-n2c(C)nnc21 [Compound I-71] | < 0.05 | 
CCNC(=O)C[C@@H]1N=C(c2ccc(CCCN(C)c3ncc(C(=O)N[C@H]4C(C)(C)[C@H](Oc5ccc(C#N)c(Cl)c5)C4(C)C)cn3)cc2)c2c(sc(C)c2C)-n2c(C)nnc21 [Compound I-104] |  | 0.05 to 0.5
CCNC(=O)C[C@@H]1N=C(c2ccc(N3CCN(CC4CCN(c5ncc(C(=O)N[C@H]6C(C)(C)[C@H](Oc7ccc(C#N)c(Cl)c7)C6(C)C)cn5)CC4)CC3)cc2)c2c(sc(C)c2C)-n2c(C)nnc21 [Compound I-105, N-[3-(3-chloro-4-cyano-phenoxy)-2,2,4,4-tetramethyl-cyclobutyl]-2-[4-[[4-[4-[(9S)-9-[2-(ethylamino)-2-oxo-ethyl]-4,5,13-trimethyl-3-thia-1,8,11,12-tetrazatricyclo[8.3.0.02,6]trideca-2(6),4,7,10,12-pentaen-7-yl]phenyl]piperazin-1-yl]methyl]-1-piperidyl]pyrimidine-5-carboxamide] |  | 0.05 to 0.5
CCNC(=O)C[C@@H]1N=C(c2ccc(N3CCC(OC4CCN(c5ncc(C(=O)N[C@H]6C(C)(C)[C@H](Oc7ccc(C#N)c(Cl)c7)C6(C)C)cn5)CC4)CC3)cc2)c2c(sc(C)c2C)-n2c(C)nnc21 [Compound I-114] | < 0.05 | 
CCNC(=O)C[C@@H]1N=C(c2ccc(N(C3CC3)C3CN(CC4CCN(c5ncc(C(=O)N[C@H]6C(C)(C)[C@H](Oc7ccc(C#N)c(Cl)c7)C6(C)C)cn5)CC4)C3)cc2)c2c(sc(C)c2C)-n2c(C)nnc21 [Compound I-129] |  | < 0.05
CCNC(=O)C[C@@H]1N=C(c2ccc(N(C)C3CC(OC4CCN(c5ncc(C(=O)N[C@H]6C(C)(C)[C@H](Oc7ccc(C#N)c(Cl)c7)C6(C)C)cn5)CC4)C3)cc2)c2c(sc(C)c2C)-n2c(C)nnc21 (some centres unmarked) [Compound I-130] |  | < 0.05
Cc1sc2c(c1C)C(c1ccc(OC3CC4(CCN(c5ncc(C(=O)N[C@H]6C(C)(C)[C@H](Oc7ccc(C#N)c(Cl)c7)C6(C)C)cn5)CC4)C3)cc1)=NC(Cc1ncco1)c1nnc(C)n1-2 (some centres unmarked) [Compound I-166] |  | 0.05 to 0.5
Cc1sc2c(c1C)C(c1ccc(OCCOC3CCN(c4ncc(C(=O)N[C@H]5C(C)(C)[C@H](Oc6ccc(C#N)c(Cl)c6)C5(C)C)cn4)CC3)cc1)=N[C@@H](CC(=O)OC(C)(C)C)c1nnc(C)n1-2 [Compound I-235, tert-butyl 2-((S)-4-(4-(2-((1-(5-(((1r,3r)-3-(3-chloro-4-cyanophenoxy)-2,2,4,4-tetramethylcyclobutyl)carbamoyl)pyrimidin-2-yl)piperidin-4-yl)oxy)ethoxy)phenyl)-2,3,9-trimethyl-6H-thieno[3,2-f][1,2,4]triazolo[4,3-a][1,4]diazepin-6-yl)acetate] | < 0.05 | < 0.05
Cc1sc2c(c1C)C(c1ccc(N3CC(CC4CCN(c5ncc(C(=O)N[C@H]6C(C)(C)[C@H](Oc7ccc(C#N)c(Cl)c7)C6(C)C)cn5)CC4)C3)cc1)=N[C@@H](C)c1nnc(C)n1-2 [Compound I-270] | < 0.05 | 
Cc1sc2c(c1C)C(c1ccc(N3CC(C4CCN(c5ncc(C(=O)N[C@H]6C(C)(C)[C@H](Oc7ccc(C#N)c(Cl)c7)C6(C)C)cn5)CC4)C3)cc1)=N[C@@H](C)c1nnc(C)n1-2 [Compound I-271] | < 0.05 | 
Cc1sc2c(c1C)C(c1ccc(OC3CC4(C3)CC3(CCN(c5ncc(C(=O)N[C@H]6C(C)(C)[C@H](Oc7ccc(C#N)c(Cl)c7)C6(C)C)cn5)CC3)C4)cc1)=N[C@@H](Cc1ncco1)c1nnc(C)n1-2 [Compound I-283] | < 0.05 | 
Cc1sc2c(c1C)C(c1ccc(CC3CC4(CCN(c5ncc(C(=O)N[C@H]6C(C)(C)[C@H](Oc7ccc(C#N)c(Cl)c7)C6(C)C)cn5)CC4)C3)cc1)=N[C@@H](C)c1nnc(C)n1-2 [Compound I-303] | < 0.05 | 
Cc1sc2c(c1C)C(c1ccc(CC3CC4(CCN(c5ncc(C(=O)N[C@H]6C(C)(C)[C@H](Oc7ccc(C#N)c(Cl)c7)C6(C)C)cn5)CC4)C3)cc1)=N[C@@H](C)c1nnc(C)n1-2 [Compound I-436] | 0.05 to 0.5 | 
